Reference: ChEMBL document CHEMBL5523756, “Molecular Transformers: Adaptive Multitarget Ligands for Esterase-Induced Transition from Analgesics to Anesthetics” (J Med Chem, 2024)
Activity calls are given as the source filed them.

How the values were obtained:
[1] = Stability of compound assessed as porcine liver esterase mediated propofol release by measuring half life at 1 mg/ml by HPLC analysis; format: ADME, Sus scrofa; conditions: pig, isolated protein
[2] = molecular target: T1, Sodium channel protein type 10 subunit alpha (Homo sapiens, UniProt Q9Y5Y9); assay: Binding affinity to Nav1.8 (unknown origin) expressed in HEK293T cells assessed as retention time of compound at 1 mg/ml by cell membrane chromatography; format: cell membranes
[3] = molecular target: T1, Sodium channel protein type 10 subunit alpha; assay: Inhibition of Nav1.8 channel (unknown origin) at -120 mV conditioning pulse by voltage clamp electrophysiological recording
[4] = Toxicity in ICR mouse assessed as survival rate at 1.5 times ED50 administered intravenously; conditions: in vivo, route iv
Mus musculus [5] = assay: Analgesic effect in ICR mouse model of CFA-induced chronic inflammatory pain assessed as increase in paw withdrawal threshold at 0.07 mmol/kg, ip measured upto 90 mins by Von Frey test; format: functional, organism-based
Mus musculus [6] = assay: Anesthetic effect in iv dosed ICR mouse by up-and-down method; format: functional
[7] = molecular target: GABA-A receptor; alpha-1/beta-2/gamma-2 (Homo sapiens) (UniProt P14867+P47870+P18507); assay: Agonist activity at alpha1beta2gamma2 GABA-A receptor (unknown origin) at 10 uM at -70 mV holding potential by electrophysiological recording; format: protein-complex assay; conditions: filed as agonist
[8] = molecular target: T1, Sodium channel protein type 10 subunit alpha; assay: Binding affinity to Nav1.8 (unknown origin) expressed in HEK293T cells at 1 mg/ml by cell membrane chromatography; format: cell membranes

T1 sequence (Q9Y5Y9 whole entry, looked up): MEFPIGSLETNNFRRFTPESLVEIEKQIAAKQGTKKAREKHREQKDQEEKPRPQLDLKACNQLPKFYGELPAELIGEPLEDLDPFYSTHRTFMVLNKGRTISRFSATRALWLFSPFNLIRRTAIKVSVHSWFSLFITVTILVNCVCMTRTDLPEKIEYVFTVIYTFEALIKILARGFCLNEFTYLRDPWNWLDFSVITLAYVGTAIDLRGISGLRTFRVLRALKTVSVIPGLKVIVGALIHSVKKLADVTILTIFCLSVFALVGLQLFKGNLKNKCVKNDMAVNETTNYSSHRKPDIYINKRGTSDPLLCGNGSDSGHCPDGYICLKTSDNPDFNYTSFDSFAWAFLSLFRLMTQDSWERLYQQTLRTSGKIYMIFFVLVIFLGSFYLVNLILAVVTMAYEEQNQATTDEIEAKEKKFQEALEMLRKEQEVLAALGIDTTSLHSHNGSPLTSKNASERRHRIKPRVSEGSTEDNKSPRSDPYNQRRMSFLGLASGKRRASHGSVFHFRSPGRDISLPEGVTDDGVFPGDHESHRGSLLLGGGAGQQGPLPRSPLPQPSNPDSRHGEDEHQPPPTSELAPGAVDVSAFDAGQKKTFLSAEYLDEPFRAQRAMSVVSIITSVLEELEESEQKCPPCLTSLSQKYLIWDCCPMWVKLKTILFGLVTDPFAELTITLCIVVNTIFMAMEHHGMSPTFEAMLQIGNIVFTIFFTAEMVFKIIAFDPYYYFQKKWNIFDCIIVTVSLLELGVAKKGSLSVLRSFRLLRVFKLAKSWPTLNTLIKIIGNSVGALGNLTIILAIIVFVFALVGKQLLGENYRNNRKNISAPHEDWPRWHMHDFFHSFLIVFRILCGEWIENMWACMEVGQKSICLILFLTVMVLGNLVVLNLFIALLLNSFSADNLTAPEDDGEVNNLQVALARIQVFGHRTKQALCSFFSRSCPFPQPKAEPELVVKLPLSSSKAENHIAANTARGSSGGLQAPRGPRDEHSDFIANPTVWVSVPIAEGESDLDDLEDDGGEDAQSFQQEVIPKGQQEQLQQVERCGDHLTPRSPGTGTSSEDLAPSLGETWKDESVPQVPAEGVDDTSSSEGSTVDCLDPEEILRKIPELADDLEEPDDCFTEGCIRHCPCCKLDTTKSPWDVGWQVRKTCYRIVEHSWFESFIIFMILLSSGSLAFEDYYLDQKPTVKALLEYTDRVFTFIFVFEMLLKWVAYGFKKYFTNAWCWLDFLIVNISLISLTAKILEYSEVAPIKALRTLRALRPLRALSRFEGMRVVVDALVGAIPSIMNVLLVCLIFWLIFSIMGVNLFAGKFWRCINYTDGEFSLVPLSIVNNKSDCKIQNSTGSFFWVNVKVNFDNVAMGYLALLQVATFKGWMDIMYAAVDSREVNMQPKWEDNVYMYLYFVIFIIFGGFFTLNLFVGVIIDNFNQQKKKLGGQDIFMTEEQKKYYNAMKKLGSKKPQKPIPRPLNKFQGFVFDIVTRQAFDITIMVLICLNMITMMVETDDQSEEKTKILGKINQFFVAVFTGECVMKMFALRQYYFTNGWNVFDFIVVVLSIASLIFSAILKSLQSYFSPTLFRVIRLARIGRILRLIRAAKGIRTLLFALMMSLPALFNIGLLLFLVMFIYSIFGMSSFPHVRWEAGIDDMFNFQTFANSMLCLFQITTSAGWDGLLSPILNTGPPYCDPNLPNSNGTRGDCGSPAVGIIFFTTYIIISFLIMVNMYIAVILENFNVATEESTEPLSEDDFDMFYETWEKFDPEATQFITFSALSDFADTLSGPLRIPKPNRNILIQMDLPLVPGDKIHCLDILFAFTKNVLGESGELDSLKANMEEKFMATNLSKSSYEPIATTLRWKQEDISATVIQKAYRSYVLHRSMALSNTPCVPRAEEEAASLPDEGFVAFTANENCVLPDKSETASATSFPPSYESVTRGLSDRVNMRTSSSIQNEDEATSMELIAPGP

Structure (SMILES)	t1/2 [1] [min]	Retention time [2] [min]	other results
CCN1CCN(CCC(=O)Oc2c(C(C)C)cccc2C(C)C)CC1.Cl	> 120	–	–
CC1CC(C)CN(CC(=O)Oc2c(C(C)C)cccc2C(C)C)C1 (configuration not stated)	–	> 110	–
CC(C)c1cccc(C(C)C)c1OC(=O)CN1CCOCC1C (configuration not stated)	–	0.8	–
CC(C)c1cccc(C(C)C)c1OC1CCN(c2ccc(C(=O)O)cc2)CC1	–	–	inhibition [3]: Active
CCN1CCN(CC(=O)Oc2c(C(C)C)cccc2C(C)C)CC1.Cl	> 120	–	–
CC(C)c1cccc(C(C)C)c1OC(=O)CN1CCCCC1	–	–	survival [4]: 100%; Activity (Mus musculus [5]): Active
COc1cc(-c2cc(C(=O)O)n[nH]2)ccc1Oc1c(C(C)C)cccc1C(C)C	–	–	inhibition [3]: Active
CC(C)c1cccc(C(C)C)c1OC(=O)OCCN1CCSCC1.Cl	4.03	–	–
CCN(CC)CCC(=O)Oc1c(C(C)C)cccc1C(C)C.Cl	3.288	18.5	survival [4]: 100%; ED50 (Mus musculus [6]): 64 µmol/kg; Activity (Mus musculus [5]): Active
CCN(CC)CC(=O)Oc1c(C(C)C)cccc1C(C)C.Cl	4.07	11.4	survival [4]: 100%; ED50 (Mus musculus [6]): 77 µmol/kg; Activity (Mus musculus [5]): Active
COCCN(CCOC)CCOC(=O)Oc1c(C(C)C)cccc1C(C)C.Cl	6.925	–	–
Cc1cc(C(=O)c2c(C(C)C)cccc2C(C)C)ccc1N1C(=O)C=CC1=O	–	–	inhibition [3]: Active
Cc1cc(COc2c(C(C)C)cccc2C(C)C)cc(C)c1CN	–	–	inhibition [3]: Active
CC(C)c1cccc(C(C)C)c1OC(=O)CN1CCSCC1.Cl	22.97	–	–
CC(C)c1cccc(C(C)C)c1Oc1ccc(C[C@@H](N)C(N)=O)cc1	–	–	inhibition [3]: Active
CC(C)c1cccc(C(C)C)c1OC(=O)CCN1CCOCC1	–	0.9	–
CC(C)c1cccc(C(C)C)c1C(=O)CSc1cccc[n+]1[O-]	–	–	inhibition [3]: Active
CC1CC(C)CN(CCCOC(=O)Oc2c(C(C)C)cccc2C(C)C)C1.Cl (configuration not stated)	3.428	–	–
CC1CN(CC(=O)Oc2c(C(C)C)cccc2C(C)C)CC(C)O1.Cl (configuration not stated)	7.227	0.5	–
CCCN(CCO)CCOC(=O)Oc1c(C(C)C)cccc1C(C)C.Cl	< 8.609	–	–
CC1CN(CCC(=O)Oc2c(C(C)C)cccc2C(C)C)CC(C)O1.Cl (configuration not stated)	1.429	3.1	–

Structure (SMILES)	t1/2 [1] [min]	Retention time [2] [min]	other results
CC1CN(CCOC(=O)Oc2c(C(C)C)cccc2C(C)C)CC(C)O1 (configuration not stated)	–	11.8	–
CC(C)c1cccc(C(C)C)c1OC(=O)CN1CCOCC1	–	0.5	–
COc1ccc(CNc2c(C(C)C)cccc2C(C)C)cc1OCC(N)=O	–	–	inhibition [3]: Active
CC1CN(CCCOC(=O)Oc2c(C(C)C)cccc2C(C)C)CC(C)O1 (configuration not stated)	–	12.4	–
CC(C)c1cccc(C(C)C)c1OC(=O)CCN1CCN(C(C)C)CC1.Cl	> 120	–	–
CC(C)c1cccc(C(C)C)c1OC(=O)OCCN1CCN(C(C)C)CC1.Cl	> 120	–	–
Cc1nccn1Cc1ccc(C(=O)c2c(C(C)C)cccc2C(C)C)o1	–	–	inhibition [3]: Active
CCN(CC)CCCOC(=O)Oc1c(C(C)C)cccc1C(C)C.Cl	< 8.609	37.1	–
COCCN(CCOC)CC(=O)Oc1c(C(C)C)cccc1C(C)C.Cl	6.712	–	–
CC1CC(C)CN(CCOC(=O)Oc2c(C(C)C)cccc2C(C)C)C1.Cl (configuration not stated)	9.305	> 110	–
CC(C)c1cccc(C(C)C)c1C(=O)c1ccc2c(CN(C)C)c[nH]c2c1	–	–	inhibition [3]: Active
CC(C)c1cccc(C(C)C)c1O	–	–	Activity [7]: Active; Activity (Mus musculus [5]): inactive
CC(C)c1cccc(C(C)C)c1OC(=O)CN1CCN(CCO)CC1.Cl	> 120	–	–
CC(C)c1cccc(C(C)C)c1OC(=O)OCCN1CCCCC1	–	1	–
CC(C)c1cccc(C(C)C)c1OC(=O)CN1CCN(C(C)C)CC1.Cl	> 120	–	–
CCN1CCN(CCOC(=O)Oc2c(C(C)C)cccc2C(C)C)CC1.Cl	4.684	–	–
CC(C)c1cccc(C(C)C)c1OC(=O)CN1CCS(=O)(=O)CC1.Cl	> 30	–	–
Cc1cc(F)ccc1Oc1cc(C(F)(F)F)ccc1C(=O)Nc1ccn(COP(=O)(O)O)c(=O)c1	–	2.6	–
CC(C)c1cccc(C(C)C)c1C(=O)c1ccc(N(C)CCS(=O)(=O)O)cc1	–	–	inhibition [3]: Active; Activity [8]: Active; Activity (Mus musculus [5]): Active
CC(C)c1cccc(C(C)C)c1OC(=O)OCCN1CCN(CCO)CC1.Cl	63.54	–	–
